{"source": "paper PMC12305873", "about": "“Chlorinated biscoumarins inhibit chikungunya virus replication in cell-based and animal models” (Emerging Microbes & Infections, 2025)", "key": {"[1]": {"test_system": "dengue virus NS5 methyltransferase (MTase)", "parameters": "method as in Loeanurit et al., under review", "conditions": "targeting the SAM binding site; ref Loeanurit et al., under review; cited from earlier work"}, "[2]": {"assay": "Pharmacokinetic study in mice"}, "[3]": {"assay": "Pharmacokinetic study in rats", "conditions": "rat"}, "CHIKV [4]": {"test_system": "CHIKV", "assay": "CHIKV plaque assay in Vero cells", "conditions": "Chikungunya virus, read-out: EC50, CHIKV inhibition"}, "CHIKV nsP1": {"target": "CHIKV nsP1 (Chikungunya virus, UniProt Q8JUX6)", "sequence (Q8JUX6 1-535)": "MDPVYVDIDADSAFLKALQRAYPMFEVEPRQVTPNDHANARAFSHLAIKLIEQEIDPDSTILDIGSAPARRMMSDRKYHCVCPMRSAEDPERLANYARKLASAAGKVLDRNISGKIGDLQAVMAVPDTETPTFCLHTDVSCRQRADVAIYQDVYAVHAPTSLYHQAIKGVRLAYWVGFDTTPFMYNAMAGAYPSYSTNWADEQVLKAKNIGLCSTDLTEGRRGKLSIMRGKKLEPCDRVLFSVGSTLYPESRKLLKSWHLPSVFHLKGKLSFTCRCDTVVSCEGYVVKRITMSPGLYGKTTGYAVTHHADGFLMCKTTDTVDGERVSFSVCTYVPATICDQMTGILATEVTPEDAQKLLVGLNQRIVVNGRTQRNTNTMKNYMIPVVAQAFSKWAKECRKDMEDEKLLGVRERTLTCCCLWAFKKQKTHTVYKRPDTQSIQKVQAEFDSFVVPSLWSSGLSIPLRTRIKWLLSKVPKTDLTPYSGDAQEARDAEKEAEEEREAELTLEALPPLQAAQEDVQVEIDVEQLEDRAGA", "assay": "MTase-Glo methyltransferase assay", "conditions": "At 50 µM (method: 100 µM), purified CHIKV nsP1"}, "CHIKV [5]": {"test_system": "CHIKV", "assay": "CHIKV plaque assay in HEK 293 cells", "conditions": "Chikungunya virus, HEK293, read-out: EC50, CHIKV inhibition"}, "C57BL/6 mice [6]": {"test_system": "C57BL/6 mice", "assay": "Single-dose acute oral toxicity in mice"}, "[7]": {"assay": "Cytotoxicity by MTS assay in HEK 293 cells", "conditions": "human"}, "CHIKV [8]": {"test_system": "CHIKV", "assay": "Cell-based anti-attachment assay in Vero cells", "conditions": "10 µM"}, "[9]": {"assay": "Cytotoxicity assay alongside the replicon assay", "conditions": "hamster"}, "Sprague Dawley rats": {"test_system": "Sprague Dawley rats", "assay": "ALT and Cr levels in rat plasma samples of the PK study", "conditions": "single oral 250 mg/kg, plasma at 24, 48, 72 h"}, "CHIKV [10]": {"test_system": "CHIKV", "assay": "Time-of-addition and time-of-removal assay in Vero cells", "conditions": "10 µM, MOI 1"}, "CHIKV [11]": {"test_system": "CHIKV", "assay": "In vivo anti-CHIKV efficacy, CHIKV-induced arthritis mouse model", "conditions": "for PMN infiltration in footpad (H&E), day 1 / PMN infiltration in footpad (H&E), days 2 and 3: compounds single oral 250 mg/kg, ribavirin 50 mg/kg BID IP"}, "CHIKV replicon": {"test_system": "CHIKV replicon", "assay": "CHIKV replicon inhibition assay (Renilla luciferase) in BHK-21 cells", "conditions": "Chikungunya virus, BHK-21, 24 h, read-out: EC50, CHIKV replicon inhibition (printed IC50 in Figure 2g,h and b75)"}, "C57BL/6 mice [12]": {"test_system": "C57BL/6 mice", "assay": "Multiple-dose toxicity in mice", "conditions": "compound 3 250 mg/kg oral BID 3 days; ribavirin 50 mg/kg BID I.P."}, "[13]": {"conditions": "C57BL/6, mouse, in vivo, po, 250 mg/kg"}, "[14]": {"conditions": "mice, oral 250 mg/kg, mean ± SD"}, "[15]": {"conditions": "Sprague Dawley, in vivo, po, 250 mg/kg"}, "[16]": {"conditions": "oral 250 mg/kg, mean ± SD, 250 mg/kg"}, "[17]": {"conditions": "single oral dose 250 or 500 mg/kg"}}}
{"smiles": "O=c1oc2ccccc2c(O)c1C(c1ccc(Cl)cc1)c1c(O)c2ccccc2oc1=O", "note": "[compound 4, 3,3′-((4-chlorophenyl)methylene)bis(4-hydroxy-2H-chromen-2-one)]", "values": [{"measurement": "Inhibition of dengue virus NS5 methyltransferase", "setting": "[1]", "value": "inhibitors of the dengue virus NS5 methyltransferase (MTase)"}, {"measurement": "AUC", "setting": "[2]; [13]", "value": 2750, "unit": "µg·h/mL"}, {"measurement": "AUC(0-inf)", "setting": "[2]; [13]", "value": "2750 ± 927", "unit": "µg·h/mL"}, {"measurement": "AUC(0-t)", "setting": "[2]; [13]", "value": "2750 ± 927", "unit": "µg·h/mL"}, {"measurement": "CL/F", "setting": "[2]; [13]", "value": 1.67, "unit": "mL/min/kg"}, {"measurement": "MRT inf", "setting": "[2]; [13]", "value": "10.1 ± 0.366", "unit": "h"}, {"measurement": "MRT last", "setting": "[2]; [13]", "value": "10.1 ± 0.356", "unit": "h"}, {"measurement": "Tmax", "setting": "[2]; [13]", "value": 6, "unit": "h"}, {"measurement": "Cmax", "setting": "[2]; C57BL/6, mouse, in vivo, po, 250 mg/kg, Cmax, mice, oral 250 mg/kg, mean ± SD", "value": "197 ± 77", "unit": "µg/mL"}, {"measurement": "half-life", "setting": "[2]; C57BL/6, mouse, in vivo, po, 250 mg/kg, HL (half-life), mice, oral 250 mg/kg, mean ± SD", "value": 3.42, "unit": "h"}, {"measurement": "Cmax", "setting": "[2]; C57BL/6, mouse, in vivo, po, 250 mg/kg, Peak plasma concentration (Cmax), mice, oral 250 mg/kg", "value": 197, "unit": "µg/mL"}, {"measurement": "Time within which plasma concentration fell below EC90 and EC50", "setting": "[2]; mice, oral 250 mg/kg", "value": "24 to 48", "unit": "h"}, {"measurement": "AUC_% Extrap_obs", "setting": "[2]; [14]", "value": "0.018 ± 0.014", "unit": "%"}, {"measurement": "Vz_F_obs", "setting": "[2]; [14]", "value": "0.494 ± 0.200", "unit": "L/kg"}, {"measurement": "HL (half-life)", "setting": "[2]; mice, oral 250 mg/kg, mean ± SD, 250 mg/kg", "value": "3.422 ± 0.419", "unit": "h"}, {"measurement": "AUC", "setting": "[3]; [15]", "value": 4180, "unit": "µg·h/mL"}, {"measurement": "AUC(0-inf)", "setting": "[3]; [15]", "value": "4440 ± 1730", "unit": "µg·h/mL"}, {"measurement": "AUC(0-t)", "setting": "[3]; [15]", "value": "4180 ± 1640", "unit": "µg·h/mL"}, {"measurement": "CL/F", "setting": "[3]; [15]", "value": 1.08, "unit": "mL/min/kg"}, {"measurement": "MRT inf", "setting": "[3]; [15]", "value": "26.77 ± 0.127", "unit": "h"}, {"measurement": "MRT last", "setting": "[3]; [15]", "value": "22.2 ± 0.801", "unit": "h"}, {"measurement": "Cmax", "setting": "[3]; Sprague Dawley, in vivo, po, 250 mg/kg, Cmax, oral 250 mg/kg, mean ± SD", "value": "133 ± 40.8", "unit": "µg/mL"}, {"measurement": "half-life", "setting": "[3]; Sprague Dawley, in vivo, po, 250 mg/kg, HL (half-life), oral 250 mg/kg, mean ± SD", "value": 16.6, "unit": "h"}, {"measurement": "Cmax", "setting": "[3]; Sprague Dawley, in vivo, po, 250 mg/kg, Peak plasma concentration (Cmax), rats, oral 250 mg/kg", "value": 133, "unit": "µg/mL"}, {"measurement": "Tmax", "setting": "[3]; Sprague Dawley, in vivo, po, 250 mg/kg, Tmax, oral 250 mg/kg, mean ± SD", "value": 10.7, "unit": "h"}, {"measurement": "AUC_% Extrap_obs", "setting": "[3]; oral 250 mg/kg, mean ± SD", "value": "6.119 ± 0.999", "unit": "%"}, {"measurement": "Vz_F_obs", "setting": "[3]; oral 250 mg/kg, mean ± SD", "value": "1.596 ± 0.946", "unit": "L/kg"}, {"measurement": "HL (half-life)", "setting": "[3]; [16]", "value": "16.649 ± 1.601", "unit": "h"}, {"measurement": "Tmax", "setting": "[3]; [16]", "value": "10.667 ± 2.309", "unit": "h"}, {"measurement": "EC50", "setting": "CHIKV [4]", "value": "2.9 ± 0.25", "unit": "µM"}, {"measurement": "nsP1 methyltransferase enzymatic activity vs DMSO control", "setting": "CHIKV nsP1", "value": "significantly inhibited enzymatic activity"}, {"measurement": "EC50", "setting": "CHIKV [5]", "value": "4.65 ± 0.56", "unit": "µM"}, {"measurement": "Activity scores", "setting": "C57BL/6 mice [6]; [17]", "value": "no significant difference in activity scores"}, {"measurement": "Kidney histology", "setting": "C57BL/6 mice [6]; [17]", "value": "remained within normal limits"}, {"measurement": "Liver (ALT) and kidney (creatinine) biomarkers", "setting": "C57BL/6 mice [6]; single oral dose 250 or 500 mg/kg, days 1, 3, 7", "value": "remained within normal limits"}, {"measurement": "Survival and clinical signs over 7 days", "setting": "C57BL/6 mice [6]; single oral dose 250 or 500 mg/kg, mice", "value": "All animals survived"}, {"measurement": "Liver histology", "setting": "C57BL/6 mice [6]; single oral dose, day 1, also seen in vehicle-treated animals", "value": "Mild, transient hepatocellular vacuolization"}, {"measurement": "Tolerability of a single oral dose", "setting": "C57BL/6 mice [6]; up to 500 mg/kg, mice", "value": "well tolerated"}, {"measurement": "CC50 at 2 days", "setting": "[7]", "value": "44.4 ± 1.48", "unit": "µM"}, {"measurement": "CHIKV inhibition, post-incubation or throughout", "setting": "CHIKV [8]; Vero, MOI 0.1, 24 hpi", "value": "robust antiviral activity was observed"}, {"measurement": "CHIKV inhibition, pre-treatment, pre-incubation or co-incubation", "setting": "CHIKV [8]; Vero, MOI 0.1, 24 hpi", "value": "Neither compound exhibited significant inhibition"}, {"measurement": "Effect of compound pre-treatment on viral replication", "setting": "CHIKV [8]; cells treated 1 h before virus", "value": "enhanced the viral replication"}, {"measurement": "CC50", "setting": "[9]", "value": "79.87 ± 0.4", "unit": "µM"}, {"measurement": "ALT and Cr levels", "setting": "Sprague Dawley rats", "value": "within normal limits"}, {"measurement": "Time-of-addition time-points significantly different from DMSO control", "setting": "CHIKV [10]", "value": "1–6 hpi"}, {"measurement": "Viral titres in time-of-addition (TOA) assay", "setting": "CHIKV [10]", "value": "significantly reduced viral titres when added up to 9 hpi"}, {"measurement": "PMN infiltration in footpad (H&E), day 1", "setting": "CHIKV [11]", "value": "reduced PMN infiltration on day 1"}, {"measurement": "PMN infiltration in footpad (H&E), days 2 and 3", "setting": "CHIKV [11]", "value": "PMN infiltration persisting at moderate levels"}, {"measurement": "CHIKV titres in footpad tissues, plaque assay, day 2 post-infection", "setting": "CHIKV [11]; single oral 250 mg/kg", "value": "significantly reduced CHIKV titres in footpad tissues"}, {"measurement": "Systemic viremia (plasma CHIKV titres, plaque assay)", "setting": "CHIKV [11]; single oral 250 mg/kg", "value": "no marked reduction in systemic viremia"}, {"measurement": "Foot swelling and activity vs vehicle group", "setting": "CHIKV [11]; single oral 250 mg/kg at 24 h after infection, transient, not significantly different from vehicle", "value": "moderate improvement in foot swelling and activity"}, {"measurement": "EC50", "setting": "CHIKV replicon", "value": "5.04 ± 0.23", "unit": "µM"}]}
{"smiles": "NC(=O)c1ncn([C@@H]2O[C@H](CO)[C@@H](O)[C@H]2O)n1", "note": "[ribavirin, Ribavirin, reference compound]", "values": [{"measurement": "Activity scores / behaviour", "setting": "C57BL/6 mice [12]", "value": "maintained normal behaviour and activity"}, {"measurement": "Creatinine", "setting": "C57BL/6 mice [12]", "value": "remained within normal limits"}, {"measurement": "Histopathology of liver tissues", "setting": "C57BL/6 mice [12]", "value": "No pathological abnormalities were observed"}, {"measurement": "Histopathology of renal tissues", "setting": "C57BL/6 mice [12]", "value": "No pathological abnormalities were observed"}, {"measurement": "PMN infiltration in footpad (H&E), day 1", "setting": "CHIKV [11]", "value": "reduced PMN infiltration on day 1"}, {"measurement": "PMN infiltration in footpad (H&E), days 2 and 3", "setting": "CHIKV [11]", "value": "PMN infiltration persisting at moderate levels"}]}
